Patent US12077503B2, “Substituted cyclic amides and their use as herbicides” (FMC CORPORATION, priority 2015, dated 2024)

How the values were obtained:
Type in all cases: in vivo
[1] = test system: ragweed (common ragweed, Ambrosia elatior); assay: Test A preemergence; conditions: Ambrosia artemisiifolia, pre-emergence, 240 h; for pest or weed control at 125 g/ha: 125 g ai/ha, Preemergence, visual injury rating after approximately 10 d, read-out: Ragweed plant response rating (0 to 100 scale, 0 is no effect, 100 is complete control); for pest or weed control at 500 g/ha: 500 g ai/ha, preemergence, visual injury rating about 10 d after treatment, 0 to 100 scale (0 no effect, 100 complete control), read-out: Ragweed plant response rating
In short: (§1)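 Seeds sprayed preemergence with a directed soil spray, or plants at 2 to 10 cm height and one- to two-leaf stage sprayed postemergence, with test chemicals in a non-phytotoxic solvent mixture containing surfactant, in loam soil–sand blend. Injury rated visually against untreated controls after about 10 d in greenhouse, 0 (no effect) to 100 (complete control).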

[2] = test system: ryegrass, Italian (Italian ryegrass, Lolium multiflorum); assay: Test A preemergence; conditions: Lolium multiflorum, pre-emergence, 240 h; for pest or weed control at 125 g/ha: 125 g ai/ha, Preemergence, visual injury rating after approximately 10 d, read-out: Ryegrass, Italian plant response rating (0 to 100 scale, 0 is no effect, 100 is complete control); for pest or weed control at 500 g/ha: 500 g ai/ha, preemergence, visual injury rating about 10 d after treatment, 0 to 100 scale (0 no effect, 100 complete control), read-out: Ryegrass, Italian plant response rating
In short: as §1

[3] = test system: pigweed (Amaranthus retroflexus); assay: Test A preemergence; conditions: Amaranthus retroflexus, pre-emergence, 240 h; for pest or weed control at 125 g/ha: 125 g ai/ha, Preemergence, visual injury rating after approximately 10 d, read-out: Pigweed plant response rating (0 to 100 scale, 0 is no effect, 100 is complete control); for pest or weed control at 500 g/ha: 500 g ai/ha, preemergence, visual injury rating about 10 d after treatment, 0 to 100 scale (0 no effect, 100 complete control), read-out: Pigweed plant response rating
[4] = test system: barnyardgrass (Echinochloa crus-galli); assay: Test A preemergence; conditions: Echinochloa crus-galli, pre-emergence, 240 h; for pest or weed control at 125 g/ha: 125 g ai/ha, Preemergence, visual injury rating after approximately 10 d, read-out: Barnyardgrass plant response rating (0 to 100 scale, 0 is no effect, 100 is complete control); for pest or weed control at 500 g/ha: 500 g ai/ha, preemergence, visual injury rating about 10 d after treatment, 0 to 100 scale (0 no effect, 100 complete control), read-out: Barnyardgrass plant response rating
In short: as §1

[5] = test system: giant foxtail (Setaria faberii); assay: Test A preemergence; conditions: Setaria faberi, pre-emergence, 240 h; for pest or weed control at 125 g/ha: 125 g ai/ha, Preemergence, visual injury rating after approximately 10 d, read-out: Foxtail, Giant plant response rating (0 to 100 scale, 0 is no effect, 100 is complete control); for pest or weed control at 500 g/ha: 500 g ai/ha, preemergence, visual injury rating about 10 d after treatment, 0 to 100 scale (0 no effect, 100 complete control), read-out: Foxtail, Giant plant response rating
In short: as §1

[6] = test system: Kochia (Kochia scoparia); assay: Test A preemergence; conditions: Bassia scoparia, pre-emergence, 240 h; for pest or weed control at 125 g/ha: 125 g ai/ha, Preemergence, visual injury rating after approximately 10 d, read-out: Kochia plant response rating (0 to 100 scale, 0 is no effect, 100 is complete control); for pest or weed control at 500 g/ha: 500 g ai/ha, preemergence, visual injury rating about 10 d after treatment, 0 to 100 scale (0 no effect, 100 complete control), read-out: Kochia plant response rating
In short: as §1

[7] = test system: Galium (catchweed bedstraw, Galium aparine); assay: Test A postemergence; conditions: Galium, post-emergence, 240 h, 125 g ai/ha, Postemergence; visual injury after approximately 10 d; 0 to 100 scale where 0 is no effect and 100 is complete control; read-out: Plant response rating, Galium
In short: as §1

[8] = test system: ragweed (common ragweed, Ambrosia elatior); assay: Test A postemergence; conditions: Ambrosia artemisiifolia, post-emergence, 240 h, 125 g ai/ha, Postemergence; visual injury after approximately 10 d; 0 to 100 scale where 0 is no effect and 100 is complete control; read-out: Plant response rating, Ragweed
In short: as §1

[9] = test system: ryegrass, Italian (Italian ryegrass, Lolium multiflorum); assay: Test A postemergence; conditions: Lolium multiflorum, post-emergence, 240 h, 125 g ai/ha, Postemergence; visual injury after approximately 10 d; 0 to 100 scale where 0 is no effect and 100 is complete control; read-out: Plant response rating, Ryegrass, Italian
In short: as §1

[10] = test system: wheat (Triticum aestivum); assay: Test A postemergence; conditions: Triticum aestivum, post-emergence, 240 h, 125 g ai/ha, Postemergence; visual injury after approximately 10 d; 0 to 100 scale where 0 is no effect and 100 is complete control; read-out: Plant response rating, Wheat
In short: as §1

[11] = test system: pigweed (Amaranthus retroflexus); assay: Test A postemergence; conditions: Amaranthus retroflexus, post-emergence, 240 h, 125 g ai/ha, Postemergence; visual injury after approximately 10 d; 0 to 100 scale where 0 is no effect and 100 is complete control; read-out: Plant response rating, Pigweed
In short: as §1

[12] = test system: blackgrass (Alopecurus myosuroides); assay: Test A postemergence; conditions: Alopecurus myosuroides, post-emergence, 240 h, 125 g ai/ha, Postemergence; visual injury after approximately 10 d; 0 to 100 scale where 0 is no effect and 100 is complete control; read-out: Plant response rating, Blackgrass
In short: as §1

[13] = test system: corn (Zea mays); assay: Test A postemergence; conditions: Zea mays, post-emergence, 240 h, 125 g ai/ha, Postemergence; visual injury after approximately 10 d; 0 to 100 scale where 0 is no effect and 100 is complete control
In short: as §1

[14] = test system: giant foxtail (Setaria faberii); assay: Test A postemergence; conditions: Setaria faberi, post-emergence, 240 h, 125 g ai/ha, Postemergence; visual injury after approximately 10 d; 0 to 100 scale where 0 is no effect and 100 is complete control; read-out: Plant response rating, Foxtail, Giant
In short: as §1

[15] = test system: Kochia (Kochia scoparia); assay: Test A postemergence; conditions: Bassia scoparia, post-emergence, 240 h, 125 g ai/ha, Postemergence; visual injury after approximately 10 d; 0 to 100 scale where 0 is no effect and 100 is complete control; read-out: Plant response rating, Kochia
In short: as §1

[16] = test system: sedge, umbrella (small-flower umbrella sedge, Cyperus difformis); assay: Test B flooded paddy test; conditions: Cyperus difformis, Flood, 250 g ai/ha; scale of 0 to 100 where 0 is no effect and 100 is complete control; read-out: Sedge, Umbrella plant response rating
In short: (§2)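 Plants at 2-leaf stage flooded to 3 cm above soil, with compounds applied directly to paddy water and that depth maintained. Plants kept in greenhouse 13–15 d. Visual rating versus controls on a 0 (no effect) to 100 (complete control) scale.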

[17] = test system: rice (Oryra sativa); assay: Test B flooded paddy test; conditions: Oryza sativa, Flood, 250 g ai/ha; scale of 0 to 100 where 0 is no effect and 100 is complete control; read-out: Rice plant response rating
In short: as §2

[18] = test system: ducksalad (Heteranthera limosa); assay: Test B flooded paddy test; conditions: Heteranthera limosa, Flood, 250 g ai/ha; scale of 0 to 100 where 0 is no effect and 100 is complete control; read-out: Ducksalad plant response rating
In short: as §2

[19] = test system: barnyardgrass (Echinochloa crus-galli); assay: Test B flooded paddy test; conditions: Echinochloa crus-galli, Flood, 250 g ai/ha; scale of 0 to 100 where 0 is no effect and 100 is complete control; read-out: Barnyardgrass plant response rating
In short: as §2

SMILES	pest or weed control at 500 g/ha [1]	pest or weed control at 125 g/ha [2]	pest or weed control at 500 g/ha [2]	pest or weed control at 125 g/ha [3]	pest or weed control at 500 g/ha [3]	pest or weed control at 125 g/ha [4]	pest or weed control at 500 g/ha [4]	pest or weed control at 125 g/ha [5]	pest or weed control at 500 g/ha [5]	pest or weed control at 125 g/ha [6]	pest or weed control at 500 g/ha [6]	pest or weed control at 125 g/ha [7]	pest or weed control at 125 g/ha [8]	pest or weed control at 125 g/ha [9]	plant injury at 125 g/ha [10]	pest or weed control at 125 g/ha [11]	pest or weed control at 125 g/ha [12]	Corn plant response rating (crop injury, 0 = no effect, 100 = complete kill) at 125 g/ha [13]	pest or weed control at 125 g/ha [14]	pest or weed control at 125 g/ha [15]	other results
CN1C[C@H](c2cc(F)cc(Cl)c2)[C@@H](C(=O)Nc2cccc(F)c2F)C1=O [Compound 974]	90%	70%	90%	20%	60%	90%	100%	90%	90%	90%	100%	50%	20%	70%	70%	40%	70%	70%	90%	70%	pest or weed control at 125 g/ha [1]: 90%; pest or weed control at 250 g/ha [16]: 0%; pest or weed control at 250 g/ha [17]: 15%; pest or weed control at 250 g/ha [18]: 100%; pest or weed control at 250 g/ha [19]: 60%
CN1C[C@H](c2cc(F)cc(Cl)c2)[C@@H](C(=O)Nc2ccccc2F)C1=O [Compound 976]	90%	50%	80%	0%	50%	90%	100%	90%	90%	70%	90%	0%	0%	20%	40%	0%	40%	60%	90%	30%	pest or weed control at 250 g/ha [16]: 0%; pest or weed control at 250 g/ha [17]: 20%; pest or weed control at 250 g/ha [18]: 95%; pest or weed control at 250 g/ha [19]: 65%
COc1cc(OC)cc([C@H]2CN(C)C(=O)[C@@H]2C(=O)Nc2ccccc2F)c1 [Compound 980]	20%	20%	30%	0%	0%	90%	100%	90%	100%	0%	90%	0%	0%	0%	0%	0%	0%	0%	90%	0%	pest or weed control at 125 g/ha [1]: 0%; pest or weed control at 250 g/ha [16]: 0%; pest or weed control at 250 g/ha [17]: 30%; pest or weed control at 250 g/ha [18]: 0%; pest or weed control at 250 g/ha [19]: 60%
